Experiments:
[1] = In vitro penetration rate across human skin in modified Franz cells; format: in vitro ADME; conditions: 3% suspension in ethanol/pH 7.4 phosphate buffer (0.2 M) 70/30
Method: Penetration rates of HPPs and their parent drugs through human skin were measured in vitro by modified Franz cells. A Franz cell had two chambers, the top sample chamber and the bottom receiving chamber. The human skin tissue (360-400 μm thick) that separated the top and the receiving chambers was isolated from the anterior or posterior thigh areas.
A compound tested (0.5 mL, 3% in a mixture of ethanol and phosphate buffer (0.2M, pH 7.4) (v/v, 70/30)) was added to the sample chamber of a Franz cell. The receiving chamber contains 2 ml of 2% bovine serum albumin in saline which was stirred at 600 rpm. The amount of the tested compound penetrating the skin was determined by high-performance liquid chromatography (HPLC) method.
The lowest detectable apparent flux values in this method was 1 μg/cm^2/h.

[2] = test system: Human breast cancer cells (BCAP-37); test: Antitumor activity, breast cancer xenograft, topical treatment from day 1; conditions: 50 μl of 3% topically once per day from day 1; after 28 days
Description: Human breast cancer cells (BCAP-37, 4-5 mm^3 of tumor tissue was used in each mouse) were subcutaneous xenografted into nude mice (BALB).

[3] = test system: Human colon cancer cells (LS174J); test: Antitumor activity, colon cancer xenograft, topical treatment from day 1; conditions: 50 μl of 3% topically twice per day from day 1; after 28 days
Description: Human colon cancer cells (LS174J, 4-5 mm^3 of tumor tissue was used in each mouse) were subcutaneously xenografted into nude mice (BALB).

[4] = test system: Human breast cancer cells (BCAP-37)
Description: Human breast cancer cells (BCAP-37, 3-4 mm^3 of tumor tissue was used in each mouse) were subcutaneously xenografted into nude mice (BALB).

[5] = test system: interferon production; test: Interferon inducing activity in guinea pigs (serum protection of fibroblasts from mengovirus); format: in vivo; conditions: serum 18 hours after treatment
Method: Without being bound by any mechanism, the ability to induce interferon production of the pro-drugs of the invention was evaluated in guinea pigs (n=10). Untreated guinea pigs provided controls.
Each test drug was administered to real back skin of a guinea pig at a specific dose of about 0.5-4.5 mg/kg respectively.
Each treated and control guinea pig was bled 18 hours after drug treatment and its serum was assayed for interferon activity. The serum was diluted and incubated with guinea pig fibroblast cells at 37° C. overnight in 96 well microtiter plates. The incubated cells were then challenged with an inoculum of mengovirus that was sufficient to kill untreated cells in two days. Two days after such challenge, the cells were examined both microscopically and after staining with crystal violet to determine whether the cells remained intact.
Table 4 contains the results of the study with activity/ml indicating the highest dilute on of serum that protected cells from virus challenge. Untreated guinea pigs provided controls.

[6] = test system: herpes simplex virus Type II; test: Anti-Herpes activity, treated for 3 days before HSV infection; format: in vivo; conditions: guinea pigs
Method: (§1) The evaluation of anti-Herpes activity of these prodrugs was carried out using the method described by Kern, et al. [Antimicrob. Agents Chemother. 14, 817, (1978)]. In each experiment, female guinea pigs (n=10) were anesthetized. […] Virus replication was monitored by determining the amount of virus recovered with vaginal swabs taken on day 7 after infection. […] The percent Lesion Inhibition was calculated as follows: 100-[(Sum of maximum lesion scores of treated group divided by the Sum of the scores of infected control)×100] (Table 5).

[7] = test system: herpes simplex virus Type I; test: as above; format: in vivo; conditions: guinea pigs
Method: as §1

[8] = test system: herpes simplex virus Type II; test: Anti-Herpes activity, treated for 5 days, first treatment just after HSV infection; format: in vivo; conditions: guinea pigs
Method: (§2) The evaluation of anti-Herpes activity of these prodrugs was carried out using the method described by Kern, et al. [Antimicrob. Agents Chemother. 14, 817, (1978)].
(§3) In the second experiment, female guinea pigs (n=10) were anesthetized. Herpes simplex virus (Type I or Type II, about 10^5 plaque forming units were used) was applied intravaginally to the guinea pigs using a cotton swab. […] Virus replication was monitored by determining the amount of virus recovered with vaginal swabs taken on day 7 after infection. External lesions were scored daily for ten days using the following scale: 0, no lesion; 1, redness and swelling; 2, a few small vesicles; 3, several large vesicles; 4, large ulcers and necrosis; and 5, paralysis. The percent Lesion Inhibition was calculated as follows: 100−[(Sum of maximum lesion scores of treated group divided by the Sum of the scores of infected control)×100] (Table 6).

[9] = test system: herpes simplex virus Type I; test: as above; format: in vivo; conditions: guinea pigs
Method: as §2, §3

[10] = test system: herpes simplex virus Type II; test: Anti-Herpes activity, treated for 5 days, first treatment 5 days after HSV infection; format: in vivo; conditions: guinea pigs
Method: as §2
(§4) In the third experiment, female guinea pigs (n=10) were anesthetized. The guinea pigs were then infected with herpes simplex virus (type I or Type II, about 10^5 plaque forming units were used) intravaginally using a cotton swab. […] External lesions were scored daily for ten days using the following scale: 0, no lesion; 1, redness and swelling; 2, a few small vesicles; 3, several large vesicles; 4, large ulcers and necrosis; and 5, paralysis. The percent Lesion Inhibition was calculated as follows: 100−[(Sum of maximum lesion scores of treated group divided by the Sum of the scores of infected control)×100] (Table 7).

[11] = test system: herpes simplex virus Type I; test: as above; format: in vivo; conditions: guinea pigs
Method: as §2, §4

[12] = test system: interferon production; test: Interferon inducing activity in guinea pigs (serum protection of fibroblasts from mengovirus); format: in vivo; conditions: serum 18 hours after treatment; remark: listed apart in the source
[13] = at day 42, treatment from day 21 (tumors 13±2 mm×12±3 mm), 50 μl of 3% topically once per day
[14] = 0.5 mg/kg once per day for 3 days before HSV infection
[15] = 1.5 mg/kg once per day for 3 days before HSV infection
[16] = 4.5 mg/kg once per day for 3 days before HSV infection
[17] = 0.5 mg/kg once per day for 5 days
[18] = 1.5 mg/kg once per day for 5 days
[19] = 4.5 mg/kg once per day for 5 days

SMILES: CC(C)Cn1cnc2c(N)nc3ccccc3c21.Cl [1-isobutyl-1H-imidazo[4,5-c]quinolin-4-amine hydrochloride, reference compound]
- In vitro Penetration Rate of Parent compounds (apparent flux) [1]: 0.005 mg/cm^2/h
- Tumor size, Human breast cancer, first dimension [2]: 12 ± 2 mm ×
- Tumor size, Human breast cancer, second dimension [2]: 11 ± 2 mm
- tumor incidence, human breast cancer [2]: 100%
- Tumor size, Human colon cancer, first dimension [3]: 17 ± 2 mm ×
- Tumor size, Human colon cancer, second dimension [3]: 15 ± 2 mm
- tumor incidence, human colon cancer [3]: 100%
- tumor size, first dimension [4, 13]: 17±2 mm
- tumor size, second dimension [4, 13]: 15±2 mm
- death of mice ([4]; up to day 70, 50 μl of 3% topically once per day from day 21): all mice died by day 70
- Interferon level of the parent drug, transdermal ([5]; 0.5 mg/kg once): 198 activity/ml
- Interferon level of the parent drug, transdermal ([5]; 1.5 mg/kg once): 776 activity/ml
- Interferon level of the parent drug, transdermal ([5]; 4.5 mg/kg once): 2,785 activity/ml
- % Lesion inhibition of the parent drug, intravaginal, Herpes type II [6, 14]: 5%
- % Lesion inhibition of the parent drug, transdermal, Herpes type II [6, 14]: 2%
- % Lesion inhibition of the parent drug, intravaginal, Herpes type II [6, 15]: 28%
- % Lesion inhibition of the parent drug, transdermal, Herpes type II [6, 15]: 2%
- % Lesion inhibition of the parent drug, intravaginal, Herpes type II [6, 16]: 87%
- % Lesion inhibition of the parent drug, transdermal, Herpes type II [6, 16]: 48%
- % Lesion inhibition of the parent drug, intravaginal, Herpes type I [7, 14]: 4%
- % Lesion inhibition of the parent drug, transdermal, Herpes type I [7, 14]: 2%
- % Lesion inhibition of the parent drug, intravaginal, Herpes type I [7, 15]: 23%
- % Lesion inhibition of the parent drug, transdermal, Herpes type I [7, 15]: 3%
- % Lesion inhibition of the parent drug, intravaginal, Herpes type I [7, 16]: 85%
- % Lesion inhibition of the parent drug, transdermal, Herpes type I [7, 16]: 45%
- % Lesion inhibition of the parent drug, intravaginal, Herpes type II [8, 17]: 2%
- % Lesion inhibition of the parent drug, transdermal, Herpes type II [8, 17]: 2%
- % Lesion inhibition of the parent drug, intravaginal, Herpes type II [8, 18]: 21%
- % Lesion inhibition of the parent drug, transdermal, Herpes type II [8, 18]: 6%
- % Lesion inhibition of the parent drug, intravaginal, Herpes type II [8, 19]: 82%
- % Lesion inhibition of the parent drug, transdermal, Herpes type II [8, 19]: 54%
- % Lesion inhibition of the parent drug, intravaginal, Herpes type I [9, 17]: 2%
- % Lesion inhibition of the parent drug, transdermal, Herpes type I [9, 17]: 2%
- % Lesion inhibition of the parent drug, intravaginal, Herpes type I [9, 18]: 17%
- % Lesion inhibition of the parent drug, transdermal, Herpes type I [9, 18]: 7%
- % Lesion inhibition of the parent drug, intravaginal, Herpes type I [9, 19]: 78%
- % Lesion inhibition of the parent drug, transdermal, Herpes type I [9, 19]: 52%
- % Lesion inhibition of the parent drug, intravaginal, Herpes type II [10, 17]: 2%
- % Lesion inhibition of the parent drug, transdermal, Herpes type II [10, 17]: 2%
- % Lesion inhibition of the parent drug, intravaginal, Herpes type II [10, 18]: 2%
- % Lesion inhibition of the parent drug, transdermal, Herpes type II [10, 18]: 2%
- % Lesion inhibition of the parent drug, intravaginal, Herpes type II [10, 19]: 44%
- % Lesion inhibition of the parent drug, transdermal, Herpes type II [10, 19]: 24%
- % Lesion inhibition of the parent drug, intravaginal, Herpes type I [11, 17]: 2%
- % Lesion inhibition of the parent drug, transdermal, Herpes type I [11, 17]: 2%
- % Lesion inhibition of the parent drug, intravaginal, Herpes type I [11, 18]: 2%
- % Lesion inhibition of the parent drug, transdermal, Herpes type I [11, 18]: 2%
- % Lesion inhibition of the parent drug, intravaginal, Herpes type I [11, 19]: 37%
- % Lesion inhibition of the parent drug, transdermal, Herpes type I [11, 19]: 22%
- Interferon level of the parent drug, intravaginal ([12]; 0.5 mg/kg once): 385 activity/ml
- Interferon level of the parent drug, intravaginal ([12]; 1.5 mg/kg once): 2,982 activity/ml
- Interferon level of the parent drug, intravaginal ([12]; 4.5 mg/kg once): 28,982 activity/ml
